Tests used:
hKCNQ2/3 = target: T1, hKCNQ2/3 (Homo sapiens, UniProt O43525+O43526); assay: hKCNQ2/3 thallium flux assay (FLIPR); assay type: cell-based; details: agonistic effect, CHO cell line stably expressing hKCNQ2/3
T1 construct: expressed in transfected cells; host or cells: CHO
Text: The present disclosure also provides the following assay methods: • Assay method 1: hKCNQ2/3 thallium flux assay • Purpose of the assay: To determine the in vitro concentration-response relationship of the compounds in a CHO cell line stably expressing hKCNQ2/3 using FLIPR thallium flux assay.
CHO cells stably transfected with hKCNQ2/3.
The cell line was passaged three times a week at a split ratio of 1:2 to 1:3. When the cells grew to a confluence degree of greater than 80% in a T-75 cell flask, they were digested with 0.25% trypsin-EDTA solution for about 1 minute, and then the cells were transferred from the cell flask for passage. According to the split ratio, the cells were transferred to another T-75 cell flask containing complete cell growth culture medium. Note: In order to maintain the logarithmic growth of cells, the cell growth should be maintained in a subconfluent monolayer state. The cells were passaged every 2 to 3 days according to the cell doubling time.
• (1) Day 1, cell preparation: The cells were digested according to the above method, and the cell density and viability were determined using Cell Countess. The volume of the single-cell suspension was adjusted with complete cell growth culture medium. Then, the hKCNQ2/3_CHO cells were seeded at a density of approximately 20,000 cells/well (30 µL/well) into a PDL-precoated 384-well plate. Then, the plate was incubated at 37 °C with 5% CO2 humidified air in an incubator overnight. • (2) Day 2, compound preparation: A test compound was diluted to a storage concentration with dimethyl sulfoxide (DMSO), and stored in a freezer at -20 °C. A compound addition program was set up on the ECHO liquid workstation, and the compound was added to the plate using the ECHO liquid workstation. A positive control was prepared using Retigabine (RTG) with a maximum concentration of 100 µM, which was subjected to a 3-fold dilution, resulting in a total of 9 doses constituting the plate map required for plating. Prepare the plate using a stimulation buffer containing 5 mM K^+ and 1 mM Tl^+. Note: 1) K2SO4 and Tl2SO4 were prepared in a 1× chloride-free buffer. When different voltage-gated potassium channels were involved, the concentrations of Tl^+ and K^+ were needed to be adjusted. The concentration of Tl^+ was approximately 0.5 mM to 5 mM, and the concentration of K^+ was approximately 5 mM to 30 mM. 2) Each 1 mM solution of K2SO4 and Tl2SO4 contained 2 mM K^+ and Tl^+. The final concentration should be calculated based on the ion concentrations. 3) TlCl was easily precipitated and a chloride-free buffer was required. • (3) Day 2, assay testing: When the cells reached the confluence degree, the cell analysis plate was taken out from the incubator. The assay buffer was prepared and the Tl^+ dye (Molecular Devices # R8222) was diluted. The culture medium was discarded using the liquid workstation Bravo and 25 µL of Tl^+ dye was added to each well. The plate was incubated for 1 hour, and then the cell analysis plate, composite plate, and FLIPR tip were placed in FLIPR^TETRA (Molecular Devices, USA) for FLIPR assay. The tip was set up, and then the baseline was read for 60 seconds. Then, 12.5 µL from the composite plate (3×) was added to the cell analysis plate, and the data were recorded for at least 5 minutes at the same time. • (4) Data processing: The maximum signal was generated with FLIPR software. Excel (2013) and Prism 6.01 were used for data analysis. The data quality control was performed with S/B > 2.00 and Z-factor > 0.50. IC50 or EC50 was defined as the midline between the lowest and the highest plateaus, and it was calculated using a four-parameter logistic model with Prism 6.01.
Purpose of the assay: To determine the in vitro concentration-response relationship of the compounds in a CHO cell line stably expressing hKCNQ2/3 using FLIPR thallium flux assay. […]

[1] = Plasma protein binding rate, equilibrium dialysis (rat plasma); assay type: in vitro ADME, Sprague-Dawley rats; details: r (Sprague-Dawley rat plasma), dialysis 4 hours at 37 °C, read-out: Unbound PPB%
Protocol: (§1) The protein binding rates of the compounds in the plasma of CD-1 mice, Sprague-Dawley rats, beagle dogs, cynomolgus monkeys, and human were determined using equilibrium dialysis method.
(§2) Commercially available plasma, dual-layer dialysis membrane, and equilibrium dialysis device.
(§3) The dual-layer dialysis membrane was soaked in ultrapure water for about 1 hour, removed and then divided into two parts. It was then soaked in an ethanol:water (20:80, v:v) solution for 20 minutes or placed at 2 to 8 °C, and it was valid for 1 month. Before starting the assay, the dialysis membrane was rinsed twice with ultrapure water and then soaked in ultrapure water for another 20 minutes for later use.
(§4) On the day of assay, the frozen plasma of CD-1 mice, Sprague-Dawley rats, beagle dogs, cynomolgus monkeys, and human was thawed in running cold tap water. After the plasma was completely thawed, the plasma was centrifuged at 3220×g for 5 minutes, and the suspended substances and precipitates in it were removed. The pH of the plasma was determined. The plasma with a pH in the range of 7.4 ± 0.1 was directly used, or the plasma with a pH in the range of 7.4 ± 0.1 after an adjustment with 1% phosphoric acid or 1M sodium hydroxide was used.
(§5) Preparation process of plasma samples: 597 µL of blank plasma from each of the above five species was taken, respectively. 3 µL of a compound or warfarin working solution was added, and the mixture was mixed thoroughly to give a plasma sample with a compound concentration of 2 µM and a warfarin concentration of 2 µM (n=1). The concentration of the organic phase DMSO was 0.5%. The sample was thoroughly mixed before proceeding to the next step.
(§6) Preparation process of T0 samples: 50 µL of a plasma sample containing the compound and warfarin was transferred to a sample receiving plate (n=3), and 50 µL of blank PBS was immediately added. Then, 500 µL of stop solution was added to the T0 sample of the compound and warfarin, and the mixture was stored at 2 to 8 °C, waiting to be processed later together with other dialysis-processed samples.
(§7) Dialysis process of plasma samples: 100 µL of a compound (2 µM) and warfarin (2 µM) plasma sample was added to the donor of each dialysis well (n=3), and 100 µL of blank PBS was added to the corresponding receiver of the dialysis well. The dialysis plate was placed in a 5% CO2 incubator, and incubated at 37 °C with shaking at approximately 100 rpm for 4 hours.
(§8) After the dialysis was completed, 50 µL of dialysis-processed PBS sample and dialysis-processed plasma sample (n=3) were transferred to a new 96-well plate (sample receiving plate). The corresponding volume of the corresponding blank plasma or PBS was added to the sample to make the final volume of each sample well 100 µL, with a plasma to PBS volume ratio of 1:1. All the samples were analyzed by LC-MS/MS after protein precipitation.
(§9) The formulas for calculating the unbound fraction (%Unbound), bound fraction (%Bound) and recovery fraction (%Recovery) of a compound are as follows: %Unbound = 100 ×F / T %Bound = 100 - %Unbound %Recovery = 100 ×(F + T)/ T0 wherein F is the concentration of the compound at the receiver of dialysis; T is the concentration of the compound at the supply end of dialysis; and T0 is the concentration of the compound in the plasma at time zero.

[2] = Plasma protein binding rate, equilibrium dialysis (dog plasma); assay type: in vitro ADME, beagle dogs; details: d (beagle dog plasma), dialysis 4 hours at 37 °C, read-out: Unbound PPB%
Protocol: as §1, §2, §3, §4, §5, §6, §7, §8, §9

T1 sequence (O43525 whole entry): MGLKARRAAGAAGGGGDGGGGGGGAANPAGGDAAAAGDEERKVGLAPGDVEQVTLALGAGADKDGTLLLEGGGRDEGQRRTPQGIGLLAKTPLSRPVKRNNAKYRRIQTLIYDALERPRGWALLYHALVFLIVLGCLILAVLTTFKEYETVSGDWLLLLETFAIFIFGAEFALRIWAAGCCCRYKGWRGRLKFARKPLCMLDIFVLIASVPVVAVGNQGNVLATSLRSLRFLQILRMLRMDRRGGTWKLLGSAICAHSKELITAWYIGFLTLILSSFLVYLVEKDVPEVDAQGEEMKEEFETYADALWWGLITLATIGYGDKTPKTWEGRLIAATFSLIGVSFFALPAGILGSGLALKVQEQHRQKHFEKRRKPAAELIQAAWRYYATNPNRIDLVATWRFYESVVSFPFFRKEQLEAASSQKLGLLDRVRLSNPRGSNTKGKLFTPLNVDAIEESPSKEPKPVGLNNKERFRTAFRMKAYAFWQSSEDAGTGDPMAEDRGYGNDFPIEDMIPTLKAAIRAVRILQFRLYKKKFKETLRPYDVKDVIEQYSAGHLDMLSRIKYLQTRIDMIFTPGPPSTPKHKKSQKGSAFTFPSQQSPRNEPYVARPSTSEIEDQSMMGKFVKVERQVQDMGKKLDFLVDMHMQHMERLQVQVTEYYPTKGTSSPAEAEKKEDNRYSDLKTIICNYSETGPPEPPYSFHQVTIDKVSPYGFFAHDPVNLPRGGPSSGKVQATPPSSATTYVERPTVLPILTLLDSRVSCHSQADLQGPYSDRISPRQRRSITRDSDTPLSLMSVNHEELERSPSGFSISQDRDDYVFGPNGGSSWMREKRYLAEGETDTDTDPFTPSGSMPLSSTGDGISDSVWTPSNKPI
T1 sequence (O43526 whole entry): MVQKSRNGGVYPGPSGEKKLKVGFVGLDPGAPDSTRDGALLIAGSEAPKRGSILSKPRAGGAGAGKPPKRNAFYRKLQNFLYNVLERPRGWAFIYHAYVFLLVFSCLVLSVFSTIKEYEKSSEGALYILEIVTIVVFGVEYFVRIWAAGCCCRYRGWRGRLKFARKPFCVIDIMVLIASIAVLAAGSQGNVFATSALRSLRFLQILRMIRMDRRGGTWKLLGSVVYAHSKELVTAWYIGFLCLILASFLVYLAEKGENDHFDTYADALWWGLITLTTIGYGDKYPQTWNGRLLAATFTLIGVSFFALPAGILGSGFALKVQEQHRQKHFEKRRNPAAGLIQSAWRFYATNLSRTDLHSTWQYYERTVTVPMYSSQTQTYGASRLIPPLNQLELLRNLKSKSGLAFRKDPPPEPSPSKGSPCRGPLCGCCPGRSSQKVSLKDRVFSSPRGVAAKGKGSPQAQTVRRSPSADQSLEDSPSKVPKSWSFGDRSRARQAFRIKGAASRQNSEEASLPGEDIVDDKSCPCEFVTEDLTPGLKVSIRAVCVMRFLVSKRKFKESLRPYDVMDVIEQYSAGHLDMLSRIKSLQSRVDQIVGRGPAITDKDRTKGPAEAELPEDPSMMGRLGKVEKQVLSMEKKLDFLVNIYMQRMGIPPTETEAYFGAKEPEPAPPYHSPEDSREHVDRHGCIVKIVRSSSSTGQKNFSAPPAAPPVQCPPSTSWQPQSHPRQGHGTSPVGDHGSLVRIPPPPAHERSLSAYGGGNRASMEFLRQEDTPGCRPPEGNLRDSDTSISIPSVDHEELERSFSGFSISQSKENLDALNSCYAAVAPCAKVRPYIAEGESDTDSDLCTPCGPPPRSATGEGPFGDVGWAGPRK

Which EC50 (hKCNQ2/3) does the source give for `CC(C)(C)CC(=O)Nc1nc2c(F)cc(C#N)cn2c1C12CC(C1)C2` [Compound 5] here?
Its EC50 is 200 nM.

And the fraction unbound at 4 h, 2 µM [1]?
Its fraction unbound at 4 h, 2 µM is 0.166.

And the fraction unbound at 4 h, 2 µM [2]?
Its fraction unbound at 4 h, 2 µM is 0.278.

Which EC50 (hKCNQ2/3) does the source give for `CC(C)(C)CC(=O)Nc1nc2c(C(F)(F)F)cc(C#N)cn2c1C12CC(C1)C2` [Compound 6] here?
The EC50 was 710 nM.

Which EC50 (hKCNQ2/3) does the source give for `CC(C)(C)CC(=O)Nc1nc2c(F)cc(C#N)cn2c1C1=CCCC1` [Compound 3] here?
The EC50 was 480 nM.

What about the fraction unbound at 4 h, 2 µM [1] of the same compound?
The fraction unbound at 4 h, 2 µM was 0.097.

What about the fraction unbound at 4 h, 2 µM [2] of the same compound?
Its fraction unbound at 4 h, 2 µM is 0.203.

What does the source list for `CC(C)(C)CC(=O)Nc1nc2c(F)cc(C#N)cn2c1-c1ccc(OC(F)(F)F)cc1` [Compound 1]?
fraction unbound at 4 h, 2 µM [1]: 0.071; fraction unbound at 4 h, 2 µM [2]: 0.046
